# Data from patent publication US20180207148A1 (priority 2015, published 2018).
# Read-outs that look alike come from different tables or passages of the source.
# Tests used:
# [1] = CNS safety pharmacology study in rats; type: in vivo, rat; conditions: Compound A administered alone
# [2] = Cardiovascular safety pharmacology in dogs; type: in vivo, dog; conditions: Compound A administered alone
# [3] = Paclitaxel pharmacokinetics in dogs after single oral dose with Compound A; conditions: dog, in vivo
# clinical [4] = conditions: human, in vivo, oral
# Source text: No premedication was allowed during this treatment sequence.
# clinical [5] = conditions: human, in vivo
# Protocol: (§1) A 2-part study was conducted in subjects with advanced/metastatic or recurrent gastric cancer. […] A total of 56 subjects enrolled in this study: 10 subjects with advanced malignant tumors in Part 1 and 46 subjects with advanced gastric cancer in Part 2.
# [6] = for CL/F: po
# clinical [7] = conditions: human, in vivo; remark: listed apart in the source
# [8] = dogs; for CL/F: paclitaxel 6 mg/kg with Compound A 3 mg/kg, single oral dose
# in vivo = conditions: dog, po, 6 mg/kg, paclitaxel 6 mg/kg with Compound A 3 mg/kg, single oral dose; for AUC(0-t): AUClast; for half-life: t1/2, dogs
# [9] = Paclitaxel pharmacokinetics in rats after single oral dose with Compound A; conditions: rat, in vivo
# [10] = tested on: transplanted human tumor cell lines; assay: Seven in vivo experiments, human tumor transplant cell lines in mice (overall); parameters: species or system mouse; conditions: paclitaxel administered IP or IV, compared with oral combination
# Protocol: In these studies, tumor inhibition rate (IR %) was calculated as ([1-relative tumor growth in treated group/relative tumor growth in control group]×100). Tumor regression was calculated as (Mean Tumor WeightEnd of treatment/Mean tumor WeightBeginning of treatment)×100. Therefore, a value <100% for tumor regression indicates a decrease in tumor weight over the course of the study and a value >100% indicates an increase in tumor weight. Tumor growth delay was calculated as the median number of days to reach two tumor mass doublings.
# [11] = human, in vivo
# Protocol: as §1
structure (smiles),measurement,setting,value
COc1cc2c(cc1OC)CN(CCc1ccc(-n3nnc(-c4cc(OC)c(OC)cc4NC(=O)c4cc(=O)c5ccccc5o4)n3)cc1)CC2.CS(=O)(=O)O.O [Compound A],reductions in body temperature,[1],absence
same,reductions in PR and QRS intervals,[2],absence
"CC(=O)O[C@H]1C(=O)[C@@]2(C)[C@H]([C@H](OC(=O)c3ccccc3)[C@]3(O)C[C@H](OC(=O)[C@H](O)[C@@H](NC(=O)c4ccccc4)c4ccccc4)C(C)=C1C3(C)C)[C@]1(OC(C)=O)CO[C@@H]1C[C@@H]2O [Paclitaxel, 5,20-Epoxy-1,2,4,7,10-13-hexahydroxytax-11-en-9-one-4,10-diacetate 2-benzoate 13-ester with (2R,3S)—N-benzoyl-3-phenylisoserine]",AUC(0-t),[3]; 2 mg/kg,413 ng·h/mL
same,Tmax,[3]; 2 mg/kg,0.5 h
same,AUC(0-t),[3]; 4 mg/kg,1330 ng·h/mL
same,Tmax,[3]; 4 mg/kg,0.7 h
same,AUC(0-t),[3]; 6 mg/kg,2120 ng·h/mL
same,Tmax,[3]; 6 mg/kg,0.5 h
same,bioavailability,clinical [4],~13.4%
same,half-life,clinical [5]; oral,18.3 to 19.7 h
same,AUC(0-t),"clinical [5]; oral, AUC0-24, range across dose levels, Day 1",611 to 894 ng·h/mL
same,AUC(0-t),"clinical [5]; oral, AUC0-24, range across dose levels, Day 2",735 to 1080 ng·h/mL
same,Cmax,"clinical [5]; oral, Cmax, range across dose levels, Day 1",202 to 280 ng/mL
same,Cmax,"clinical [5]; oral, Cmax, range across dose levels, Day 2",159 to 315 ng/mL
same,Cmax,"clinical [5]; po, 90 mg/m2, Paclitaxel Cmax, Mean (SD), 90 mg/m^2, Day 1, N 2, two consecutive daily oral doses",202 ng/mL
same,Cmax,"clinical [5]; po, 90 mg/m2, Paclitaxel Cmax, Mean (SD), 90 mg/m^2, Day 2, N 2, two consecutive daily oral doses",315 ng/mL
same,Cmax,"clinical [5]; po, 120 mg/m2, Paclitaxel Cmax, Mean (SD), 120 mg/m^2, Day 2, N 3, two consecutive daily oral doses",159 ng/mL
same,AUC(0-t),"clinical [5]; po, 150 mg/m2",894 ng·h/mL
same,Cmax,"clinical [5]; po, 150 mg/m2",251 ng/mL
same,Cmax,"clinical [5]; po, 150 mg/m2, Paclitaxel Cmax, Mean (SD), 150 mg/m^2, Day 2, N 3, two consecutive daily oral doses",276 ng/mL
same,Mean apparent clearance (CL/F),"[6]; human, in vivo",up to 244.9 L/h
same,CL/F,"[6]; human, in vivo, 60 mg/m2",178.4 L/h
same,CL/F,"[6]; human, in vivo, 180 mg/m2",173.4 L/h
same,CL/F,"[6]; human, in vivo, 240 mg/m2",147.6 L/h
same,CL/F,"[6]; human, in vivo, 360 mg/m2",228.7 L/h
same,CL/F,"[6]; human, in vivo, 420 mg/m2",244.9 L/h
same,MTD,"[6]; oral paclitaxel 60 to 420 mg/m^2 on days 1, 8 and 15 of 28-day cycle with Compound A",not reached
same,overall toxicity profile,"[6]; orally administered in combination with Compound A, neutropenia the adverse event associated with discontinuation",consistent with that of paclitaxel
same,half-life,clinical [7],19.9 to 32.1 h
same,AUC(0-inf),"clinical [7]; po, 60 mg/m2",727 ng·h/mL
same,AUC(0-t),"clinical [7]; po, 60 mg/m2",584 ng·h/mL
same,Cmax,"clinical [7]; po, 60 mg/m2",150 ng/mL
same,MRT inf,"clinical [7]; po, 60 mg/m2",28.6 h
same,Vd/F,"clinical [7]; po, 60 mg/m2",9130 L
same,half-life,"clinical [7]; po, 60 mg/m2",32.1 h
same,AUC(0-inf),"clinical [7]; po, 120 mg/m2",1840 ng·h/mL
same,AUC(0-t),"clinical [7]; po, 120 mg/m2",1610 ng·h/mL
same,CL renal,"clinical [7]; po, 120 mg/m2",50 mL/min
same,MRT inf,"clinical [7]; po, 120 mg/m2",17 h
same,Vd/F,"clinical [7]; po, 120 mg/m2",4040 L
same,half-life,"clinical [7]; po, 120 mg/m2",22 h
same,AUC(0-inf),"clinical [7]; po, 180 mg/m2",1980 ng·h/mL
same,AUC(0-t),"clinical [7]; po, 180 mg/m2",1670 ng·h/mL
same,CL renal,"clinical [7]; po, 180 mg/m2",30 mL/min
same,Cmax,"clinical [7]; po, 180 mg/m2",432 ng/mL
same,MRT inf,"clinical [7]; po, 180 mg/m2",21.9 h
same,Vd/F,"clinical [7]; po, 180 mg/m2",6030 L
same,half-life,"clinical [7]; po, 180 mg/m2",24.4 h
same,AUC(0-inf),"clinical [7]; po, 240 mg/m2",2970 ng·h/mL
same,AUC(0-t),"clinical [7]; po, 240 mg/m2",2550 ng·h/mL
same,CL renal,"clinical [7]; po, 240 mg/m2",40 mL/min
same,Cmax,"clinical [7]; po, 240 mg/m2",510 ng/mL
same,MRT inf,"clinical [7]; po, 240 mg/m2",23.4 h
same,Vd/F,"clinical [7]; po, 240 mg/m2",6010 L
same,half-life,"clinical [7]; po, 240 mg/m2",25.7 h
same,AUC(0-inf),"clinical [7]; po, 300 mg/m2",3480 ng·h/mL
same,AUC(0-t),"clinical [7]; po, 300 mg/m2",3140 ng·h/mL
same,CL renal,"clinical [7]; po, 300 mg/m2",33.3 mL/min
same,Cmax,"clinical [7]; po, 300 mg/m2",920 ng/mL
same,MRT inf,"clinical [7]; po, 300 mg/m2",16.2 h
same,Vd/F,"clinical [7]; po, 300 mg/m2",4930 L
same,half-life,"clinical [7]; po, 300 mg/m2",21.2 h
same,AUC(0-inf),"clinical [7]; po, 360 mg/m2",2850 ng·h/mL
same,AUC(0-t),"clinical [7]; po, 360 mg/m2",2510 ng·h/mL
same,CL renal,"clinical [7]; po, 360 mg/m2",122 mL/min
same,MRT inf,"clinical [7]; po, 360 mg/m2",18.7 h
same,Vd/F,"clinical [7]; po, 360 mg/m2",6840 L
same,half-life,"clinical [7]; po, 360 mg/m2",20.8 h
same,AUC(0-inf),"clinical [7]; po, 420 mg/m2",3730 ng·h/mL
same,AUC(0-t),"clinical [7]; po, 420 mg/m2",3410 ng·h/mL
same,CL renal,"clinical [7]; po, 420 mg/m2",48.3 mL/min
same,MRT inf,"clinical [7]; po, 420 mg/m2",14.7 h
same,Vd/F,"clinical [7]; po, 420 mg/m2",7180 L
same,half-life,"clinical [7]; po, 420 mg/m2",19.9 h
same,"AUC, fasted group compared to fed group",[8],~2 fold
same,"Cmax, fasted group compared to fed group",[8],~2 fold
same,CL/F,[8]; Fasted,4.2 ± 1.2 L/h
same,CL/F,[8]; Fed,6.4 ± 1.3 L/h
same,AUC(0-t),"in vivo; dogs, Fasted",1600 ± 416 ng·h/mL
same,AUC(0-t),"in vivo; dogs, Fed",849 ± 120 ng·h/mL
same,Cmax,"in vivo; Cmax, dogs, Fed",299 ± 54.6 ng/mL
same,Tmax,"in vivo; dogs, Fasted",0.5 h
same,Tmax,"in vivo; dogs, Fed",0.7 ± 0.2 h
same,Vd/F,"in vivo; dogs, Fasted",57.9 ± 17.4 L
same,Vd/F,"in vivo; dogs, Fed",88 ± 19.6 L
same,half-life,in vivo; Fasted,9.4 ± 0.3 h
same,half-life,in vivo; Fed,9.9 ± 2.7 h
same,AUC(0-t),[9]; 5 mg/kg,333 ng·h/mL
same,Cmax,[9]; 5 mg/kg,103 ng/mL
same,Tmax,[9]; 5 mg/kg,0.6 h
same,AUC(0-t),[9]; 10 mg/kg,1030 ng·h/mL
same,Cmax,[9]; 10 mg/kg,356 ng/mL
same,Tmax,[9]; 10 mg/kg,0.7 h
same,AUC(0-t),[9]; 20 mg/kg,3010 ng·h/mL
same,Cmax,[9]; 20 mg/kg,852 ng/mL
same,Tmax,[9]; 20 mg/kg,1.2 h
same,AUC(0-t),[9]; 30 mg/kg,6640 ng·h/mL
same,Cmax,[9]; 30 mg/kg,1760 ng/mL
same,Tmax,[9]; 30 mg/kg,1.2 h
same,half-life,[9]; 30 mg/kg,6 h
same,AUC(0-t),[9]; 40 mg/kg,11100 ng·h/mL
same,Cmax,[9]; 40 mg/kg,2490 ng/mL
same,Tmax,[9]; 40 mg/kg,1.5 h
same,half-life,[9]; 40 mg/kg,5.5 h
same,AUC(0-t),[9]; 50 mg/kg,13100 ng·h/mL
same,Cmax,[9]; 50 mg/kg,3070 ng/mL
same,half-life,[9]; 50 mg/kg,5.3 h
same,activity against transplanted human tumor cell lines,[10],generally less active
same,"Overall exposure on Day 2, higher than Day 1",[11],20-30%
